Assay results from PubChem BioAssay AID1159561 (GlaxoSmithKline (GSK), 2015).
Calls of active or inactive are those of the source.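 How the source made its calls: active means toxic to mouse fibroblast host cells, with IC50 below 50 µM; inactive means the rest.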

test system: NIH-3T3 viability, ATP luminescence; assay: murine fibroblast viability via ATP level – cell-based, murine fibroblasts, cytotoxicity control for Trypanosoma cruzi inhibitor project (AID 1159561); conditions: 4 days

Row | SMILES | IC50
1 | CC(C)Oc1ccc(C(=O)Nc2ccc(N3CCOCC3)c(Cl)c2)cc1 | 10 µM
2 | CN(C)c1ccc(-c2cc3nccnc3c(OC[C@H]3CCCNC3)n2)cn1 | 16 µM
3 | CC(Cn1ccnc1)NC(=O)COc1ccc(Cl)c(Cl)c1 (centres undefined) | > 50 µM (inactive)
4 | Cc1cccnc1CN1CCN(CCCOc2ccc(-c3ccc(C(N)=O)cc3)cc2)CC1 | 6.3 µM
5 | CNc1c(C(N)=O)c(-c2ccc3scnc3c2)nn1CC(F)(F)F | 20 µM
6 | COc1ccc(CN2CCCCC2c2nc(-c3cccnc3)no2)cc1 (centres undefined) | > 50 µM (inactive)
7 | OC1CCC(Nc2nccc(-c3sc(C4CCOCC4)nc3-c3ccc(F)c(F)c3)n2)CC1 (centres undefined) | 40 µM
8 | CCCN1CCN(Cc2ccc(S(=O)(=O)Nc3cccc(C)c3)cc2)CC1 | 25 µM
9 | CN(Cc1ccc(F)cc1)c1ccc(OCC(=O)N2CCCCC2c2cccnc2)nn1 (centres undefined) | 10 µM
10 | Cc1ccc(S(=O)(=O)Cn2nnnc2C(c2cccnc2)N2CCN(c3ccccc3)CC2)cc1 (centres undefined) | 32 µM
11 | CC(=O)Nc1nc(-c2cc(C)ccc2C)c(C)s1 | 25 µM
12 | CC(C)c1cc(C(=O)N2CCCC(c3cc4ncccc4[nH]3)C2)on1 (centres undefined) | 20 µM
13 | C=CCn1nc([N+](=O)[O-])nc1Oc1ccc(Cl)cc1Cl | 50 µM
14 | c1cncc(CN(Cc2ccco2)Cc2cn[nH]c2-c2cccs2)c1 | 32 µM
15 | c1ccc(CCNCc2cncc3nc(-c4cnccn4)n(C4CCCCC4)c23)cc1 | 6.3 µM
16 | CC(=O)Nc1ccc(-c2csc(NC(=O)c3ccc([N+](=O)[O-])s3)n2)cc1 | 6.3 µM
17 | CS(=O)(=O)c1cccc(-c2cnc(N)c3c(-c4ccc(CO)cc4)csc23)c1 | 25 µM
18 | FC(F)(F)c1cc(C2CCCN(Cc3c[nH]c4ccccc34)C2)nc2ncnn12 (centres undefined) | 20 µM
19 | COc1ccc(NS(=O)(=O)c2cc(NC(=O)Cc3ccc(C)cc3)ccc2N2CCOCC2)cc1 | 25 µM
20 | CN1CCN(c2nc(-c3ccc(Cl)cc3)c3c(N)n(C)nc3n2)CC1 | 25 µM
21 | O=C(NCCc1ccccc1Cl)c1cccn1-c1cccnc1 | 32 µM
22 | Cc1c(C#N)c([N+](=O)[O-])nn1Cc1cccc(Cl)c1Cl | 40 µM
23 | Cc1nn(C2CCS(=O)(=O)C2)c(C)c1CN(C)C(=O)C=Cc1sc2ccccc2c1Cl (centres undefined) | > 50 µM (inactive)
24 | CC(C)N(C(=O)CN1C(=O)C(N)C(=O)N(c2ccccc2)c2ccccc21)c1ccccc1 (centres undefined) | 20 µM
25 | COc1ccc([N+](=O)[O-])cc1NC(=O)Nc1cccc(Cl)c1 | > 50 µM (inactive)
26 | COc1ccc(NS(=O)(=O)c2cc(-c3cc(C)[nH]n3)ccc2C)cc1OC | > 50 µM (inactive)

Row | SMILES | IC50
27 | NC(=O)c1ccccc1Nc1nc(NC2CCCCC2)nc2[nH]ccc12 | 25 µM
28 | COc1ccc2c(Cl)c(C(=O)N3CCC3)sc2c1Cl | > 50 µM (inactive)
29 | CCOc1cnn(C)c(=O)c1Nc1ccc(C(=O)NCc2ccc(F)cc2)cc1 | > 50 µM (inactive)
30 | O=C(NCC1CCCCC1)c1cc(=O)c2ccccc2o1 | 32 µM
31 | CS(=O)(=O)c1ccc(CC(=O)Nc2nc(-c3ccc(Cl)s3)cs2)cc1 | > 50 µM (inactive)
32 | O=C(NCc1ccc(-n2cccc2)cc1)c1nc(Cn2ccc([N+](=O)[O-])n2)no1 | 50 µM
33 | Cc1c(CNC(=O)c2ccc(Cn3cc(Cl)c([N+](=O)[O-])n3)cc2)cnn1C | > 50 µM (inactive)
34 | CCC(=O)Nc1ccc(-c2nc3ccc(Cl)cc3[nH]2)cc1 | > 50 µM (inactive)
35 | CCCCn1nnnc1CSc1nc(C)cc(C)c1C#N | > 50 µM (inactive)
36 | CCN(CC)S(=O)(=O)c1ccc(C(=O)Nc2cc(C)nn2-c2nc(C)c(C)c(=O)[nH]2)cc1 | > 50 µM (inactive)
37 | Cn1nc([N+](=O)[O-])nc1N1CCCCC1 | > 50 µM (inactive)
38 | O=C(Nc1ccc(C(=O)N2CCCC2c2ccc3c(c2)OCCCO3)cc1)c1ccco1 (centres undefined) | > 50 µM (inactive)
39 | CN(Cc1cc2ccccc2s1)c1ncc2c(N)nc(N)nc2n1 | 25 µM
40 | OCCCNc1nc(Nc2ccncc2)nc2ccccc12 | > 50 µM (inactive)
41 | CCC(=O)Nc1ccc(C(=O)Nc2ccccc2-c2ccccc2)cc1 | > 50 µM (inactive)
42 | CC1CN(S(=O)(=O)c2ccc(NC(=O)c3cc(C4CC4)nc4c3cnn4C(C)C)cc2)CC(C)O1 (centres undefined) | > 50 µM (inactive)
43 | COc1ccc(NS(=O)(=O)c2cc(NC(=O)c3ccc([N+](=O)[O-])s3)ccc2OC)cc1 | > 50 µM (inactive)
44 | O=[N+]([O-])c1ccc(C2=CC(c3ccccc3)=NCCN2)cc1 | 7.9 µM
45 | N#Cc1cccc(CN2CCC(c3nc(-c4ccc(C(F)(F)F)nc4)no3)CC2)c1 | > 50 µM (inactive)
46 | O=c1[nH]ccc2ccc(-c3ccncc3)cc12 | > 50 µM (inactive)
47 | NC(=O)c1ccc(-c2cccc(OCCN3CCN(C4CCCCC4)CC3)c2)cc1 | 16 µM
48 | CC(=O)Nc1ccc(-c2noc(CC3CCCN(Cc4cccc(F)c4C)C3)n2)cc1 (centres undefined) | 25 µM
49 | O=C(NCc1nnc2n1CCCCC2)c1ccc(-c2ccc(F)cc2)o1 | > 50 µM (inactive)
50 | Cc1cccc(NS(=O)(=O)c2cnc3sc(C)cn3c2=O)c1 | > 50 µM (inactive)
51 | COc1ccc(-c2nc3ccncc3c(=O)n2CCOc2ccccc2)cc1 | 32 µM
52 | Cc1[nH]nc2c1C(c1ccc(OCc3ccccc3F)cc1)SCC(=O)N2 (centres undefined) | > 50 µM (inactive)

Row | SMILES | IC50
53 | CC(C)Oc1cccc(N2CCC(C(=O)N3CCCN(C(C)C)CC3)CC2)c1 | 32 µM
54 | COc1cc(C(C)C)c(S(C)(=O)=O)cc1C(=O)N1CCN(c2ccccc2Cl)CC1 | > 50 µM (inactive)
55 | COc1cccc(C(=O)[C@H]2C[C@@H]2CN(Cc2cccnc2)Cc2cccnc2)c1 | 20 µM
56 | CN1CCCN(C(=O)c2ccc(N3CCCC3)cc2Cl)CC1 | 25 µM
57 | Cc1ccc(S(=O)(=O)Nc2ccc(CN3CCN(C(=O)c4cccc(C#N)c4)CC3)cc2)cc1 | > 50 µM (inactive)
58 | Cc1ccc(C)c(OC2CCN(C(=O)C(C)n3ccnc3)CC2)c1 (centres undefined) | > 50 µM (inactive)
59 | O=C(Nc1cccc(F)c1)N1CCC(Oc2cccc(-c3cccnc3)c2)CC1 | 40 µM
60 | CNc1cc(Cn2c(C(=O)c3cc(C)cc(Cl)c3)c(C(C)C)c(=O)[nH]c2=O)ccn1 | 10 µM
61 | O=C(c1cnn(-c2ccccc2)n1)N1CCCC(n2ccnc2)C1 (centres undefined) | 20 µM
62 | O=c1cc(NCCCNC2CCOc3c(I)cc(Cl)cc32)[nH]c2ccccc12 (centres undefined) | 25 µM
63 | COc1ccc(C(=O)N2CCC(Nc3cccnc3)C2)c(OC)n1 (centres undefined) | > 50 µM (inactive)
64 | Cc1cc(N(C)C)nc(Nc2ccccc2C)n1 | 40 µM
65 | Cn1cc(CN2CCN(c3ccc4c(c3)CCN(C(=O)[C@H]3C[C@@H]3c3ccccc3)CC4)CC2)cn1 | 20 µM
66 | O=C(COc1ncnc2cc([N+](=O)[O-])ccc12)NC(=O)NC1CCCCC1 | > 50 µM (inactive)
67 | CC1=NN(C(=O)CCn2cnc([N+](=O)[O-])n2)C(O)(C(F)(F)F)C1 (centres undefined) | > 50 µM (inactive)
68 | Clc1ccc(Sc2cnccc2N2CCOCC2)cc1 | > 50 µM (inactive)
69 | CC(C)(C)C(Cn1ccnc1)NC(=O)c1ccc2nc(C3CC3)oc2c1 (centres undefined) | > 50 µM (inactive)
70 | O=C(N1CCc2ccccc2CC1)C1(C(=O)N2CCC(n3c(=O)[nH]c4ncccc43)CC2)CC1 | 40 µM
71 | CN(Cc1ccc(C(N)=O)cc1)C(c1ccc(F)cc1)c1cccnc1 (centres undefined) | 32 µM
72 | CCCc1nc2nc(N)nc(N)c2cc1CC | 32 µM
73 | O=C(C1CCCCC1)N1CCN(c2nnc(-c3ccccc3)c3ccccc23)CC1 | > 50 µM (inactive)
74 | Cc1ccc2c(c1)-c1onc(C(=O)N3CCCCC3c3cccnc3)c1CO2 (centres undefined) | 20 µM
75 | N#Cc1nc(C=Cc2ccccc2)oc1NCc1cccnc1 | 13 µM
76 | N#Cc1cc(N2CCCC2=O)ccc1Sc1ccccc1CO | > 50 µM (inactive)
77 | COc1ccccc1C=CCN1C[C@H]2CCC[C@@H](C1)C2(O)c1cccnc1 (some centres undefined) | 32 µM
78 | Cc1ccc(NC(=O)c2ccc(Cl)c(NC(=O)c3ccc([N+](=O)[O-])cc3)c2)cc1 | 20 µM

Row | SMILES | IC50
79 | N#Cc1cc([N+](=O)[O-])ccc1NC1CCCCCC1 | > 50 µM (inactive)
80 | COc1ccc(C(C)(C)C)cc1S(=O)(=O)n1ccnc1 | > 50 µM (inactive)
81 | O=C(CSc1ccc(F)cc1)N[C@@H](Cc1cnc[nH]1)C(=O)NCCc1ccccc1 | 13 µM
82 | CC1=C(C(=O)Nc2ccc(Cl)cc2)C(c2ccncc2)n2ncc(C(=O)Nc3ccccc3)c2N1 (centres undefined) | 32 µM
83 | Cc1nc(N2CCC(C(=O)N3CCC(O)(c4cccnc4)CC3)CC2)nc2ccc(C(C)C)cc12 | 25 µM
84 | COc1ccc(-c2cc(C)no2)cc1S(=O)(=O)Nc1ccc(F)c(Cl)c1 | 25 µM
85 | Cc1sc(C)c(C(F)(F)F)c1CNCCCNc1cc(=O)c2ccccc2[nH]1 | 10 µM
86 | O=c1[nH]cnc2c([C@@H]3O[C@H](CO)[C@@H](O)[C@H]3O)[nH]nc12 | > 50 µM (inactive)
87 | COc1ccc2nccc([C@H](O)CN3CC[C@H](NC(=O)c4ccc(Br)cc4)[C@@H](O)C3)c2n1 | > 50 µM (inactive)
88 | CC1(Oc2cncc(Cl)c2)CCN(Cc2cc3ccccc3[nH]2)C1 (centres undefined) | 10 µM
89 | CNc1cncc(C2CCCN2C(=O)Cc2ccc3ccccc3c2)n1 (centres undefined) | > 50 µM (inactive)
90 | Cc1cc(C)c(C#N)c(SCC(=O)c2ccc3c(c2)OCO3)n1 | > 50 µM (inactive)
91 | CCC(c1ccc(F)cc1)n1cncc1-c1cnn(C)c1 (centres undefined) | 25 µM
92 | COc1ccccc1-c1c(C)[nH]c2nc(N)nc(C)c12 | > 50 µM (inactive)
93 | COc1ccc(C(C)N(C)c2ncc3c(N)nc(N)nc3n2)cc1F (centres undefined) | 40 µM
94 | COc1ccc(S(=O)(=O)NCc2ccc(-c3ccc(CN(C)CCO)cc3)cc2)cc1 | 16 µM
95 | CC(Cn1ccnc1)NC(=O)C1CC1c1cccc(Cl)c1Cl (centres undefined) | > 50 µM (inactive)
96 | Cc1ccccc1OCC(=O)N1CCCN(c2cccnn2)CC1 | 50 µM
97 | O=c1ccn(-c2ccc([N+](=O)[O-])cc2Cl)c2ccc(F)cc12 | > 50 µM (inactive)
98 | O=C(Nc1ncc([N+](=O)[O-])s1)C1CC1 | 32 µM
99 | CN(C)c1ncc(-c2cncn2CCOc2ccc(Cl)cc2)cn1 | 40 µM
100 | COc1ccc(C)cc1-c1csc(NC(=O)C(C)n2ccnc2)n1 (centres undefined) | 50 µM
101 | O=C(NCCc1cccnc1)c1ccc(-c2ccccc2F)o1 | 40 µM
102 | O=C(CSc1ccc(-c2ccccn2)nn1)Nc1ccc(Cl)cc1 | 32 µM
103 | CC(C)Nc1nccc(-c2c(-c3ccc(F)cc3)ncn2C2CCOCC2)n1 | > 50 µM (inactive)
104 | Cc1ccc(CNC2CCN(C[C@@H]3Cn4c(=O)ccc5ccc(=O)n3c54)CC2)cc1F | 16 µM
